In patent US7811352B2, “Fertilizer compositions and methods of using” (priority 2005, dated 2010):

Experiments:
Type in all cases: in vivo
Bermuda grass = assay: Phytotoxicity (% burn), Bermuda grass golf course fairways (Example 13)
Experimental: (§1) In this Example, the effect of a fertilizer comprising lysine on turfgrass growth was examined. The effects of lysine (HCl) and LIQUID LYSINE on a common type of golf course fairway quality turfgrass (Bermuda green) were compared with those of CoRoN® brand fertilizer.
Six fertilizer treatments comprising two concentrations of each fertilizer composition (Coron® (N—P—K, 14-2-14), LIQUID LYSINE (N—P—K, 10-2-1), and lysine (HCl) (N—P—K, 15-2-1)) were prepared and applied to 3 replications of Bermuda grass for use on golf course fairways. The lysine (HCl) was applied as a granular using a Scotts 2 foot drop spreader on a setting of 4.5. The solutions of LIQUID LYSINE and Coran were applied using a Birchmeier backpack sprayer with a 5 foot spray pattern. Each fertilizer treatment was applied in concentrations 3.0 lb N/1000 ft^2 and 6.0 lb N/1000 ft^2. Plot size was 5 ft×60 ft set up as a randomized complete block. Irrigation was applied following application, Plots were rated for turfgrass quality and color (scale of 1-10 where 10=dark green turf 1=dead/brown turf and 6=minimally acceptable turf) and phytotoxicity (% burn) throughout the study period and compared with two untreated plots. […] All data was subject to statistical analysis and significant means were determined.

[1] = system: rhizomatous tall fescue grass; assay: Turfgrass quality and color ratings, rhizomatous tall fescue (Example 14); details: scale of 1-10
Experimental: In this Example, the effect of a fertilizer comprising lysine on turfgrass growth was examined. The effects of lysine (HCl) and LIQUID LYSINE on a common type of lawn quality turfgrass (rhizomatous tall fescue) were compared with those of CoRoN® brand fertilizer.
Six fertilizer treatments comprising two concentrations of each fertilizer composition (Coron® (N—P—K, 14-2-34), LIQUID LYSINE (N—P—K, 10-2-1), and lysine (HCl) (N—P—K, 15-2-1)) were prepared and applied to 3 replications of rhizomatous tall fescue grass. The solutions of lysine (HCl) (dissolved in 0.5 gal water), LIQUID LYSINE and Coran were applied using a Birchmeier backpack sprayer with a 5 foot spray pattern, Each fertilizer treatment was applied in either a 3-split application with an application rate of 2 lb N/1000 ft^2 or a 6-split application with an application rate of 1 lb N/1000 ft^2. Plot size was 9 ft×9 ft set up as a randomized complete block. Irrigation was applied following application. Plots were rated for turfgrass quality and color (scale of 1-10 where 10=dark green turf, 1 =dead/brown turf, and 6=minimally acceptable turf and phytotoxicity (% burn) throughout the study period and compared with two untreated plots. Quality, color, and phytotoxicity were measured on day 7, day 14, day 21, day 28, day 35, and day 42 after application. All data was subject to statistical analysis and significant means were determined. Average turfgrass quality ratings for the treatments are presented in Table 21. Average turfgrass color ratings are presented in Table 22. Average phytotoxicity ratings (as % burn) are presented in Table 23.

[2] = system: creeping bentgrass for greens; assay: Phytotoxicity (% burn), creeping bentgrass for greens (Example 12)
Description: as §1, with “greens” for “fairway”, “(creeping bentgrass for greens)” for “(Bermuda green)”, “fertilizer (commercially available from Helena Chemical Co., Collierville, Tenn.).” for “fertilizer.”
Nine fertilizer treatments comprising three concentrations of each fertilizer composition (Corono® (N—P—K, 14-2-14), LIQUID LYSINE (N—P—K, 10-2-1), and lysine (HCl) (N—P—K, 15-2-1)) were prepared and applied to 3 replications of creeping bentgrass for use on golf course greens. The lysine (HCl) (250 g) was dissolved in water (500 mL) prior to application. Each fertilizer treatment was applied in concentrations of 0.7 g N/m^2, 1.4 g N/m^2, and 2.8 g N/m^2. All applications were made using an Ortho Heavy Duty hand pump sprayer with all products being mixed with 126 mL of water for application. Plot size was 2 ft×6 ft set up as a randomized complete block. Irrigation was applied following application. Plots were rated for turfgrass quality and color (scale of 1-10 where 10=dark green turf, 1=dead/brown turf, and 6minimally acceptable turf) and phytotoxicity (% bum) throughout the study period. Quality, color, and phytotoxicity were measured on day 7, day 14, day 2I1, day 28, day 35, and day 42 after application. All data was subject to statistical analysis and significant means were determined.

[3] = 3-split, 2.0 lb N/1000 ft^2, Day 7
[4] = 3-split, 2.0 lb N/1000 ft^2, Day 14
[5] = 3-split, 2.0 lb N/1000 ft^2, Day 21
[6] = 3-split, 2.0 lb N/1000 ft^2, Day 28
[7] = 3-split, 2.0 lb N/1000 ft^2, Day 35
[8] = 6-split, 1.0 lb N/1000 ft^2, Day 7
[9] = 6-split, 1.0 lb N/1000 ft^2, Day 14
[10] = 6-split, 1.0 lb N/1000 ft^2, Day 21
[11] = 6-split, 1.0 lb N/1000 ft^2, Day 28
[12] = 6-split, 1.0 lb N/1000 ft^2, Day 35

SMILES: Cl.NCCCC[C@H](N)C(=O)O [Lys (HCl) 15% N, L-lysine monohydrochloride]
- Phytotoxicity (% Burn) - Bermuda grass (Bermuda grass; 3.0 lb N/1000 ft^2, Day 7): 11.7bc %
- Phytotoxicity (% Burn) - Bermuda grass (Bermuda grass; 3.0 lb N/1000 ft^2, Day 12): 6.7b %
- Phytotoxicity (% Burn) - Bermuda grass (Bermuda grass; 3.0 lb N/1000 ft^2, Day 19): 1.7bc %
- Phytotoxicity (% Burn) - Bermuda grass (Bermuda grass; 3.0 lb N/1000 ft^2, Day 26): 0.0b %
- Phytotoxicity (% Burn) - Bermuda grass (Bermuda grass; 3.0 lb N/1000 ft^2, Day 33): 0.0a %
- Phytotoxicity (% Burn) - Bermuda grass (Bermuda grass; 3.0 lb N/1000 ft^2, Day 40): 0.0c %
- Phytotoxicity (% Burn) - Bermuda grass (Bermuda grass; 3.0 lb N/1000 ft^2, Day 47): 0.0c %
- Phytotoxicity (% Burn) - Bermuda grass (Bermuda grass; 6.0 lb N/1000 ft^2, Day 7): 21.7a %
- Phytotoxicity (% Burn) - Bermuda grass (Bermuda grass; 6.0 lb N/1000 ft^2, Day 12): 11.7a %
- Phytotoxicity (% Burn) - Bermuda grass (Bermuda grass; 6.0 lb N/1000 ft^2, Day 19): 5.0b %
- Phytotoxicity (% Burn) - Bermuda grass (Bermuda grass; 6.0 lb N/1000 ft^2, Day 26): 0.0b %
- Phytotoxicity (% Burn) - Bermuda grass (Bermuda grass; 6.0 lb N/1000 ft^2, Day 33): 0.0a %
- Phytotoxicity (% Burn) - Bermuda grass (Bermuda grass; 6.0 lb N/1000 ft^2, Day 40): 0.0c %
- Phytotoxicity (% Burn) - Bermuda grass (Bermuda grass; 6.0 lb N/1000 ft^2, Day 47): 0.0c %
- Color Ratings - Tall fescue grass [1, 3]: 5.0 days
- Quality Ratings - Tall fescue grass [1, 3]: 5.7c
- Color Ratings - Tall fescue grass [1, 4]: 6.0b
- Quality Ratings - Tall fescue grass [1, 4]: 7.0b
- Color Ratings - Tall fescue grass [1, 5]: 7.0bc
- Quality Ratings - Tall fescue grass [1, 5]: 7.0b
- Color Ratings - Tall fescue grass [1, 6]: 8.0a
- Quality Ratings - Tall fescue grass [1, 6]: 8.0a
- Color Ratings - Tall fescue grass [1, 7]: 8.0a
- Quality Ratings - Tall fescue grass [1, 7]: 8.0a
- Color Ratings - Tall fescue grass [1, 8]: 6.0c
- Quality Ratings - Tall fescue grass [1, 8]: 6.0c
- Color Ratings - Tall fescue grass [1, 9]: 7.0a
- Quality Ratings - Tall fescue grass [1, 9]: 7.0b
- Color Ratings - Tall fescue grass [1, 10]: 7.0bc
- Quality Ratings - Tall fescue grass [1, 10]: 7.7a
- Color Ratings - Tall fescue grass [1, 11]: 8.0a
- Quality Ratings - Tall fescue grass [1, 11]: 8.0a
- Color Ratings - Tall fescue grass [1, 12]: 8.0a
- Quality Ratings - Tall fescue grass [1, 12]: 8.0a
- Phytotoxicity (% Burn) - Creeping Bentgrass ([2]; Rate 0.7 gN/m^2, Day 7): 2.3b %
- Phytotoxicity (% Burn) - Creeping Bentgrass ([2]; Rate 0.7 gN/m^2, Day 14): 15.0c %
- Phytotoxicity (% Burn) - Creeping Bentgrass ([2]; Rate 0.7 gN/m^2, Day 21): 10.0d %
- Phytotoxicity (% Burn) - Creeping Bentgrass ([2]; Rate 0.7 gN/m^2, Day 28): 6.7b %
- Phytotoxicity (% Burn) - Creeping Bentgrass ([2]; Rate 0.7 gN/m^2, Day 35): 3.3d %
- Phytotoxicity (% Burn) - Creeping Bentgrass ([2]; Rate 0.7 gN/m^2, Day 42): 1.7c %
- Phytotoxicity (% Burn) - Creeping Bentgrass ([2]; Rate 1.4 gN/m^2, Day 7): 15.0c %
- Phytotoxicity (% Burn) - Creeping Bentgrass ([2]; Rate 1.4 gN/m^2, Day 14): 58.3b %
- Phytotoxicity (% Burn) - Creeping Bentgrass ([2]; Rate 1.4 gN/m^2, Day 21): 51.7b %
- Phytotoxicity (% Burn) - Creeping Bentgrass ([2]; Rate 1.4 gN/m^2, Day 28): 18.3ab %
- Phytotoxicity (% Burn) - Creeping Bentgrass ([2]; Rate 1.4 gN/m^2, Day 35): 56.7b %
- Phytotoxicity (% Burn) - Creeping Bentgrass ([2]; Rate 1.4 gN/m^2, Day 42): 31.7b %
- Phytotoxicity (% Burn) - Creeping Bentgrass ([2]; Rate 2.8 gN/m^2, Day 7): 36.7a %
- Phytotoxicity (% Burn) - Creeping Bentgrass ([2]; Rate 2.8 gN/m^2, Day 14): 78.3a %
- Phytotoxicity (% Burn) - Creeping Bentgrass ([2]; Rate 2.8 gN/m^2, Day 21): 73.3a %
- Phytotoxicity (% Burn) - Creeping Bentgrass ([2]; Rate 2.8 gN/m^2, Day 28): 35.0a %
- Phytotoxicity (% Burn) - Creeping Bentgrass ([2]; Rate 2.8 gN/m^2, Day 35): 83.3a %
- Phytotoxicity (% Burn) - Creeping Bentgrass ([2]; Rate 2.8 gN/m^2, Day 42): 78.3a %
